# Source: patent publication EP1056778B1, “G PROTEIN-COUPLED RECEPTOR ANTAGONISTS” (priority 1998, dated 1999)
# Read-outs that look alike come from different tables or passages of the source. Where a SMILES comes first, the peptide text is derived from it.
# Legend:
# CCKAR [1] = molecular target: T1, CCKAR (Rattus norvegicus, UniProt P30551); assay: Inhibition of CCK-8 evoked intracellular calcium release in CHO cells stably transfected with rat CCKAR; type: cell-based
# T1 construct: expressed in transfected cells; host or cells: CHO cells
# T1 sequence (P30551 1-444): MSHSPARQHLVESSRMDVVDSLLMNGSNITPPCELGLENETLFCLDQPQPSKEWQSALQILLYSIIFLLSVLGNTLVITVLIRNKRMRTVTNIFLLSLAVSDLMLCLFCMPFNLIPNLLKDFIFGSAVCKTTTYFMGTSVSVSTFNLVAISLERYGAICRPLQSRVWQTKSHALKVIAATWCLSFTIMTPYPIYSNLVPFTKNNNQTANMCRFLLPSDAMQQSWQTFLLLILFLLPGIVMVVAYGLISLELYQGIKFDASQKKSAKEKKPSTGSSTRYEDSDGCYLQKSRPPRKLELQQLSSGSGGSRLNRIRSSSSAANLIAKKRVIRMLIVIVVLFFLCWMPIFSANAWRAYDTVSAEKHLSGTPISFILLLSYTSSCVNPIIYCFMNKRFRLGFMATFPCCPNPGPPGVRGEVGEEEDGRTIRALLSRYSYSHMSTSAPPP
# Protocol: The activity of peptides from the CCKAR transmembrane domain were tested in transfected CHO cells that stably express rat […] et al. (1997), J. Biol. Chem. 272: 14817-14824). Sulfated cholecystokinin octapeptide was the CCKAR agonist. Determination of intracellular calcium release was performed as described in example 1 above. None of CCKAR-derived peptides served as antagonists of chemokine receptors and none could inhibit HIV-1 infection. The activity of the antagonists in inhibiting signaling through the receptor was compared to the ability to prevent agonist binding (Table 4). Inhibition of signaling was assessed in CCK-8 evoked intracellular calcium release in FURA-2/AM treated CHO cells stably transfected with rat […], et al. (1997) J. Biol. Chem. 272:14817). Inhibition of ligand binding was measured with the use of a fluorescent agonist, rhodamine green CCK-8 (RG-CCK-8) and quantitative confocal laser scanning microscopy (Tarasova, et al. (1997) J. Biol. Chem. 272:14817). Peptides derived from the first, second, and sixth transmembrane domains inhibited CCK-induced signaling through the CCKAR receptor. […] Table 4. The activity of CCKAR-derived TM peptides in inhibition of CCK-8 -induced intracellular calcium release and RG-CCK-8 binding.
# CCKAR [2] = molecular target: T1, CCKAR; assay: Inhibition of binding of fluorescent agonist RG-CCK-8, quantitative confocal laser scanning microscopy
# CXCR4 = CXCR4 (Homo sapiens, UniProt P61073); assay: Inhibition of SDF-1α-induced intracellular calcium release (Fura-2/AM, HeLa and U87 cells expressing CXCR4); type: cell-based; conditions: Table 2; SDF-1α-induced intracellular calcium release
# CXCR4, sequence (P61073 whole entry): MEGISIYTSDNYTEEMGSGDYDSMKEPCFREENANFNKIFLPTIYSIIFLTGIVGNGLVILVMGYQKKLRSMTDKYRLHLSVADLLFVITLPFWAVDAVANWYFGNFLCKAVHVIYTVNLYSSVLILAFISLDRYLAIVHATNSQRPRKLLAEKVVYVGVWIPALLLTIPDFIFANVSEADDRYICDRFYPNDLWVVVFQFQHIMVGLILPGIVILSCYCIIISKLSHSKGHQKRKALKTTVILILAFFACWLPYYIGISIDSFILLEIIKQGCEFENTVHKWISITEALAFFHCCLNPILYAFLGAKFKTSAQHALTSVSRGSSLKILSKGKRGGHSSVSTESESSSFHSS
# Protocol: The effect of the peptides on CXCR4-mediated calcium fluxes in HeLa cells that naturally express the CXCR4 receptor and U87 cells stably expressing the CXCR4 receptor was tested as follows. Cells grown on Nunc cover glass chamber slides were incubated with 1 micromolar Fura-2/AM for 20 min in a CO2-incubator, rinsed with PBS and mounted on the stage of a Zeiss Axiovert inverted microscope. [Ca^2+]i measurements were performed using an Attofluor digital imaging system (Atto Instruments, Rockville, MD). Fluorescence of Fura was excited at alternating wavelength of 340 and 380 nm. Fluorescence was monitored by an intensified CCD camera using a 505 cut-off filter. Calibrations of [Ca^2+]i signals were performed using Ca^2+ standards containing 1 micromolar Fura. CXCR4 antagonists were tested on HeLa cells and U87 cells. Stromal cell-derived factor-1α (SDF-1α) was used as a specific CXCR4 agonist.
# CCR5 antagonists, which were used in selectivity studies as described below, were tested on HEK (human kidney […]) cells stably expressing the CCR5 receptor and RANTES was used as an agonist. The antagonist activity of the peptides was evaluated by measuring the inhibition of agonist-evoked intracellular Ca^2+i release. These measurements were carried out in Fura-2/AM-treated cells, utilizing an Attofluor digital imaging system as described above. The agonist was SDF-1α.
# Further optimization and structure-activity studies allowed to obtain antagonists derived from all but the third and fifth transmembrane domains (Table 2). Table 1. Activity of synthetic peptides corresponding to predicted transmembrane domains of CXCR4 in inhibition of SDF-1α-induced intracellular calcium release.
# Table 2. Biological activity of CXCR4 antagonists derived from different transmembrane domains. Anti signaling activity was determined in inhibition of SDF-1α-induced intracellular calcium release. Anti-HIV-1 activity was assessed in cytoprotection assay utilizing CEM-SS cells infected with HIV-1RF.
# HIV-1RF = assay: Anti-HIV-1 cytoprotection assay, CEM-SS cells infected with HIV-1 strain RF; type: cell-based; conditions: 1RF
structure (smiles),measurement,setting,value
CSCC[C@H](NC(=O)[C@H](CC(C)C)NC(=O)[C@H](CC(=O)O)NC(=O)[C@H](CO)NC(=O)[C@@H](NC(=O)[C@H](C)NC(=O)[C@H](CC(C)C)NC(=O)[C@H](CO)NC(=O)[C@H](CC(C)C)NC(=O)[C@H](CC(C)C)NC(=O)[C@@H](N)Cc1ccccc1)C(C)C)C(=O)N[C@@H](CC(C)C)C(=O)N[C@@H](CS)C(=O)N[C@@H](CC(C)C)C(=O)N[C@@H](Cc1ccccc1)C(=O)N[C@@H](CS)C(=O)N[C@@H](CCSC)C(=O)N1CCC[C@H]1C(=O)N[C@@H](Cc1ccccc1)C(=O)N[C@@H](CC(N)=O)C(=O)N[C@@H](CC(C)C)C(=O)N1CCC[C@H]1C(=O)O [CCKAR-2-1] (H-FLLSLAVSDLMLCLFCMPFNLP-OH),"Concentration, required for inhibition of signaling","CCKAR [1]; CCK-8-induced intracellular calcium release, CHO cells with rat CCKAR",2 µM
same,potency in inhibition of ligand signaling compared with binding,"CCKAR [1]; comparison of signaling and binding, Table 4",comparable potencies
CC[C@H](C)[C@H](NC(=O)CNC(=O)[C@@H]1CCCN1C(=O)[C@H](CC(C)C)NC(=O)[C@H](CC(C)C)NC(=O)[C@H](Cc1ccccc1)NC(=O)[C@H](CC(C)C)NC(=O)[C@@H](NC(=O)[C@H](CC(C)C)NC(=O)[C@H](CC(C)C)NC(=O)[C@H](CC(C)C)NC(=O)[C@H](Cc1ccccc1)NC(=O)[C@@H](NC(=O)[C@H](CCC(N)=O)NC(=O)[C@H](CC(=O)O)NC(=O)[C@@H](N)CC(=O)O)[C@@H](C)O)[C@@H](C)CC)C(=O)N[C@H](C(=O)N[C@@H](CCSC)C(=O)N[C@H](C(=O)N[C@H](C(=O)N[C@@H](C)C(=O)N[C@@H](Cc1ccc(O)cc1)C(=O)NCC(=O)N[C@@H](CC(C)C)C(=O)O)C(C)C)C(C)C)C(C)C [CCKAR-5-3] (H-DDQTFLLLILFLLPGIVMVVAYGL-OH),IC50,CCKAR [2],> 50 µM
CC[C@H](C)[C@H](N)C(=O)N[C@H](C(=O)N[C@H](C(=O)N[C@@H](CC(C)C)C(=O)N[C@@H](Cc1ccccc1)C(=O)N[C@@H](Cc1ccccc1)C(=O)N[C@@H](CC(C)C)C(=O)N[C@@H](CS)C(=O)N[C@@H](Cc1c[nH]c2ccccc12)C(=O)N[C@@H](CCSC)C(=O)N1CCC[C@H]1C(=O)N[C@H](C(=O)N[C@@H](Cc1ccccc1)C(=O)N[C@@H](CO)C(=O)N[C@@H](C)C(=O)N[C@@H](CC(N)=O)C(=O)N[C@@H](C)C(=O)N[C@@H](Cc1c[nH]c2ccccc12)C(=O)N[C@@H](CCCNC(=N)N)C(=O)N[C@@H](C)C(=O)N[C@@H](Cc1ccc(O)cc1)C(=O)N[C@@H](CC(=O)O)C(=O)N[C@H](C(=O)N[C@H](C(=O)N[C@@H](CC(=O)O)C(=O)N[C@@H](CC(=O)O)C(=O)O)C(C)C)[C@@H](C)O)[C@@H](C)CC)C(C)C)C(C)C [CCKAR-6-4] (H-IVVLFFLCWMPIFSANAWRAYDTVDD-OH),IC50,CCKAR [2],> 50 µM
CC[C@H](C)[C@H](NC(=O)[C@H](CCC(N)=O)NC(=O)[C@H](CC(C)C)NC(=O)[C@H](C)NC(=O)[C@H](CO)NC(=O)[C@H](CCC(N)=O)NC(=O)[C@H](Cc1c[nH]c2ccccc12)NC(=O)[C@H](CCC(=O)O)NC(=O)[C@H](CC(=O)O)NC(=O)[C@@H](N)CC(=O)O)C(=O)N[C@@H](CC(C)C)C(=O)N[C@@H](CC(C)C)C(=O)N[C@@H](Cc1ccc(O)cc1)C(=O)N[C@@H](CO)C(=O)N[C@H](C(=O)N[C@H](C(=O)N[C@@H](Cc1ccccc1)C(=O)N[C@@H](CC(C)C)C(=O)N[C@@H](CC(C)C)C(=O)N[C@@H](CO)C(=O)N[C@H](C(=O)NCC(=O)N[C@@H](CC(N)=O)C(=O)N[C@H](C(=O)N[C@@H](CC(C)C)C(=O)N[C@H](C(=O)N[C@H](C(=O)N[C@H](C(=O)N[C@H](C(=O)O)C(C)C)[C@@H](C)O)[C@@H](C)CC)C(C)C)[C@@H](C)O)C(C)C)[C@@H](C)CC)[C@@H](C)CC [CCKAR-1-6] (H-DDEWQSALQILLYSIIFLLSVGNTLVITV-OH),IC50,"CCKAR [2]; fluorescent agonist rhodamine green CCK-8, read-out: IC50 in inhibiton of RG-CCK-8 binding",20 µM
CC[C@H](C)[C@H](NC(=O)[C@@H]1CCCN1C(=O)[C@H](CC(N)=O)NC(=O)[C@H](CC(C)C)NC(=O)[C@H](CS)NC(=O)[C@H](CS)NC(=O)[C@H](Cc1c[nH]cn1)NC(=O)[C@H](Cc1ccccc1)NC(=O)[C@H](Cc1ccccc1)NC(=O)[C@H](C)NC(=O)[C@H](CC(C)C)NC(=O)[C@H](C)NC(=O)[C@H](CCC(=O)O)NC(=O)[C@H](CC(=O)O)NC(=O)[C@@H](N)CC(=O)O)C(=O)N[C@@H](CC(C)C)C(=O)N[C@@H](Cc1ccc(O)cc1)C(=O)N[C@@H](C)C(=O)N[C@@H](Cc1ccccc1)C(=O)N[C@@H](CC(C)C)C(N)=O [Peptide F-7-3] (H-DDEALAFFHCCLNPILYAFL-NH2; N-terminus assumed),"Concentration, required for inhibition of signal transduction",CXCR4,25 µM
same,EC50,HIV-1RF,3.27 µM
